Measurements as given in publication PMC4643876, “Picomolar Inhibition of Plasmepsin V, an Essential Malaria Protease, Achieved Exploiting the Prime Region” (PLoS ONE, 2015).
Where “and” joins values, the source holds several entries; their conditions need not be identical. Identical values can stand only once. Like-named read-outs stand apart in the source and are kept apart here. * marks the point of attachment. DABCYL = CN(C)c1ccc(/N=N/c2ccc(C(=O)*)cc2)cc1; EDANS = O=S(=O)(O)c1cccc2c(NCCN*)cccc12

How the values were obtained:
[1] = pH 7.4
[2] = system: Plasmodium falciparum strain 3D7; assay: Parasite growth inhibition by flow cytometry, strain 3D7; format: cell-based; conditions: asynchronous 3D7 cultures, about 4 days, 0.195–200 μM, flow cytometry
Plasmepsin V (PmV) [3] = biological target: T1, Plasmepsin V (PmV) (Plasmodium falciparum, UniProt Q8I6Z5); assay: PmV inhibition, fluorimetric PExEl cleavage assay; format: biochemical
T1 construct: PmV was purified directly from parasites; made in house
T1 sequence (Q8I6Z5 whole entry): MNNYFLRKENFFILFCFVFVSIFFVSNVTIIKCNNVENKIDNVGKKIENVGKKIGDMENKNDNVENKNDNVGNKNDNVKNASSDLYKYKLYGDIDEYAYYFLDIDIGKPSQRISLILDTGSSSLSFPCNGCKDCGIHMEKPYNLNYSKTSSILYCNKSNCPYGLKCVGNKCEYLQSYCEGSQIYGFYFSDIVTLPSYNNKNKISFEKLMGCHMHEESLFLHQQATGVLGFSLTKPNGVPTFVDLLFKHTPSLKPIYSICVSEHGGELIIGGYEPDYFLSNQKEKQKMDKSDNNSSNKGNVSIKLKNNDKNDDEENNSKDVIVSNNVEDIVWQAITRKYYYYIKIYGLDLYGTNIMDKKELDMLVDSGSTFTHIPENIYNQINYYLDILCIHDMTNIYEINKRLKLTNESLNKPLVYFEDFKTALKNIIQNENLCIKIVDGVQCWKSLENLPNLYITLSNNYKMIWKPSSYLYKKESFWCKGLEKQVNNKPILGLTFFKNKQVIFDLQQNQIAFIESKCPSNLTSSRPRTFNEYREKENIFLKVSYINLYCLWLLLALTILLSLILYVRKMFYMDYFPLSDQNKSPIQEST
Protocol: Saponin was added to culture to a final 0.05%; parasites were recovered via centrifugation at 4°C after 5 min of incubation on ice; parasite pellets were then washed twice in cold PBS and either immediately lysed or stored at -80°C until lysis. Parasites were lysed via three pulses of ultra-sonication of 10 sec duration, in PBS containing 0.5% Triton-X100 (TX-100). […] Quick washes of the resin were performed either in batches, or over columns, to remove unbound cellular material (four with ice-cold 0.5% TX-100 in PBS and a final one with cold PBS). Resin-bound PmV was stored in PBS at 4°C and used within 2–3 weeks, larger batches had Glycerol added to them, up to 10%, and were stored at -20°C for up to 5 months. […] Quality and purity of PmV batches were routinely confirmed by protein electrophoresis. Quantification of PmV was performed via densitometry analysis of stained protein SDS-PAGE gels relative to BSA standard curves.
(§1) PExEl cleavage activity was monitored by fluorimetric measurement of PExEl cleavage, as previously reported. […] PmV activity was performed at 37°C in 50 mM Tris-Maleate, pH 6.5, 50 mM NaCl, 0.05% TX-100, 2 mM DTT. Assays were routinely conducted in triplicate. Bead-bound enzyme was added to the reaction using ‘end-cut’ micropipette tips in order to facilitate sampling the suspension.
Inhibitory activities were measured in the presence of a substrate concentration of 3 μM by serial dilution of each compound in triplicates. […] Titration curves of the inhibitors were routinely composed of eleven points from 10 μM to 0.1 pM. PmV concentration was kept in the order of low picomolar (≤10 pM). […] Analysis of the half inhibitory activity (IC50) was performed by sigmoidal interpolation of the starting velocities of the hydrolytic reactions for each condition. Starting velocities were calculated on the initial linear range of the product progression curves. […] Data are presented with error bars indicating the standard deviation of three independent activity curves.

PmV-GFP = biological target: T2, PmV-GFP (Plasmodium falciparum, UniProt Q8I6Z5); assay: Pull-down / co-precipitation of PmV-inhibitor complexes from DC6 lysates; format: binding
T2 construct: parasite cellular lysates of DC6 a clone that constitutively expresses PmV-GFP; expressed in transfected cells; host or cells: Plasmodium falciparum clone DC6 (3D7-derived; PmV-GFP under the native PmV promoter), crude lysate
T2 sequence (Q8I6Z5 whole entry): as above
Protocol: Pull-down experiments were performed using parasite cellular lysates of DC6 a clone that constitutively expresses PmV-GFP [15]. […] [i] […] An anti-GFP antibody, 3E6, was added with protein A-agarose as above described and incubated 1 h at 4°C, with gentle agitation. The resin was washed 3 times with cold PBS and then boiled in Laemmli sample buffer for later biotin detection in a dot-blot format. [ii] […] Incubation was carried out for 1 h at 4°C gently maintaining the beads in suspension. Then the resin was washed 3 times with cold PBS and boiled in Laemmli sample buffer for subsequent protein western blot analysis of the pull-down material.

clone DC6 = assay: Growth curve analysis over 10 days, clone DC6; format: cell-based, Plasmodium falciparum; parameters: growth rate (r): unit not given here; conditions: 0.75 μM Shield-1
From the text: (§2) Fig 14 PmV-GFP-DD clone G6 generation and characterization. (A) Creation of a PmV-GFP-DD chimera by homologous recombination. […] The plasmid contains sequence from the PmV ORF 3’ end in frame with GFP-DD [24]. Relative positions of BsrGI restriction sites (vertical bars) and the probe are indicated. (B) Southern blot of BsrGI-restricted DNA from the parental strain 3D7, the 3 drug cycles (Selection I, II, III), 3 of the isolated clones, among which G6 is number 3, and the transfected plasmid (at the far right) is shown. Arrows: endogenous gene (blue), and modified PmV locus (green). (C) Live microscopy of the clone expressing the cytosolic YFP-DD chimera (via episomally maintained plasmid) and G6 in presence or absence of 0.5 μM Shield-1. Top to Bottom: bright field (grey), Hoechst (blue), fluorescent proteins (green), Lysotracker (red), merges of the blue and green channels and of all three channels. (D) Western blot of total lysates of parasites at diverse concentrations of Shield-1 (0–1 μM): clone DC6, clone G6 and 3D7 expressing YFP-DD. PmV was detected with both anti-GFP and anti-PmV. BiP detection served as loading control. (E) Live microscopy of the G6 clone expressing the PmV-GFP-DD chimera at various Shield-1 concentrations (0–1 μM). (F) PmV levels from DC6 (green) and G6 (red) were quantified from blot (panel D) and plotted as ratio of PmV to BiP. The last point of the ratio is affected by a reduced BiP expression in 1 μM Shield-1. This is possibly due to the level of toxicity of this molecule at high concentrations. (G) Flow cytometry analysis of the GFP signal of PmV-GFP-DD (clone G6) in presence (green line) or absence (red line) of 0.75 μM Shield-1 in respect of PmV-GFP (clone DC6) (black line). The cellular levels of PmV-GFP(±DD) are similar in the presence 0.75 μM Shield-1 while PmV-GFP-DD is about 4 times less than PmV-GFP in the absence of Shield-1. (H) Growth curve analysis over 10 days for PmV-GFP-DD and DC6 in the presence or absence of 0.75 μM Shield-1.

clone G6 (PmV-GFP-DD) = assay: Growth curve analysis over 10 days, clone G6; format: cell-based, Plasmodium falciparum; parameters: growth rate (r): unit not given here; conditions: 0.75 μM Shield-1
From the text: as §2

Plasmepsin V (PmV) [4] = biological target: T1, Plasmepsin V (PmV); assay: PmV steady-state kinetics of substrate hydrolysis; format: biochemical
Protocol: as §1
Steady-state measurements of PmV substrate hydrolysis were analyzed assuming the widely accepted aspartic protease mechanism, E + S → ES → ET* → EP → E + P, where P is the product of the reaction; S is the substrate; E is the free enzyme; ES, ET* and EP denote the enzyme-substrate, the transition state and enzyme-product adducts, respectively. The measurement of steady-state velocity of product formation, v = d[P]/dt, yielded catalytic constants according to the classical Michaelis-Menten equation v = e * kcat *[S] / ([S] + K M), where e is enzyme concentration. In our experimental conditions the fluorescence of HETQ-EDANS (AnaSpec), the reaction product (P), was quantified by titration. PmV kinetics parameters were calculated using non-linear curve-fitting analyses from SigmaPlot on the basis of measurements with multiple substrate concentrations monitored until the completion of the reaction. […]

[5] = 3 μM HRPII-PExEl substrate, averages of not less than three inhibition curves, read-out: IC50

Compound	LD50 growth inhibition [2]	Ki (Plasmepsin V (PmV) [3])	IC50 (Plasmepsin V (PmV) [3]; [5])	other results
CC(C)C[C@H](NC(=O)[C@@H](N)CCCNC(=N)N)C(=O)N[C@@H](CC(C)C)C(O)CN[C@@H](C)C(=O)N[C@@H](CCC(=O)O)C(=O)N[C@@H](C)C(N)=O (mixture of isomers) [Compound 1]	> 200 µM	0.2 nM	0.37 nM	logD [1]: -4.28; IC50 (Plasmepsin V (PmV) [3]; 3 μM substrate, read-out: IC50): 0.367 nM; IC50 (Plasmepsin V (PmV) [3]; inhibitor added after the reaction was initiated, read-out: IC50): 0.329 nM; IC50 (Plasmepsin V (PmV) [3]; pre-mixing the enzyme with inhibitor, read-out: IC50): 0.367 nM; greater inhibition efficiency relative to WEHI916 (Plasmepsin V (PmV) [3]; side-by-side comparison): ~ 100 fold; competition of Compound 36 binding to PmV (PmV-GFP; 50 μM competitor): negatively affects the interaction between Compound 36 and PmV
CC(C)C[C@H](NC(=O)[C@@H](N)CCCNC(=N)N)C(=O)N[C@@H](CC(C)C)C(O)CN[C@@H](C)C(=O)N[C@@H](CCC(=O)O)C(=O)N[C@@H](C)C(=O)O (mixture of isomers) [Compound 4]	> 200 µM	0.7 nM	1.31 nM	IC50 increase compared to Compound 1 (Plasmepsin V (PmV) [3]): 1.3–3.5 fold
CC[C@H](C)[C@H](NC(=O)[C@@H](N)CCCNC(=N)N)C(=O)N[C@@H](CC(C)C)C(O)CN[C@@H](C)C(=O)N[C@@H](CCC(=O)O)C(=O)N[C@@H](C)C(N)=O (mixture of isomers) [Compound 5]	> 200 µM	0.35 nM	0.65 nM	–
CC[C@H](C)[C@H](NC(=O)[C@@H](N)CCCNC(=N)N)C(=O)N[C@@H](CC(C)C)C(O)CN[C@@H](C)C(=O)N[C@@H](CCC(=O)O)C(=O)N[C@@H](C)C(=O)O (mixture of isomers) [Compound 6]	> 200 µM	1.16 nM	2.16 nM	IC50 increase compared to Compound 5 (Plasmepsin V (PmV) [3]): 1.3–3.5 fold
CSCC[C@H](N)C(=O)N[C@@H](CC(C)C)C(=O)N[C@@H](CC(C)C)C(O)CN[C@@H](C)C(=O)N[C@@H](CCC(=O)O)C(=O)N[C@@H](C)C(=O)O (mixture of isomers) [Compound 16]	> 200 µM	–	> 10000 nM	IC50 (Plasmepsin V (PmV) [3]; 3 μM substrate, tested up to 10 μM): completely inactive
CC(=O)N[C@@H](CCCNC(=N)N)C(=O)N[C@@H](CC(C)C)C(=O)N[C@@H](CC(C)C)C(O)CN[C@@H](C)C(=O)N[C@@H](CCC(N)=O)C(=O)N[C@@H](C)C(N)=O (mixture of isomers) [Compound 35]	16.5 μM and ~ 16.5 μM	63.5 nM	118 nM	–
CC(C)C[C@H](NC(=O)[C@@H](N)CCCNC(=N)N)C(=O)N[C@@H](CC(C)C)[C@@H](O)CN[C@@H](C)C(=O)N[C@@H](CCC(N)=O)C(=O)N[C@@H](C)C(N)=O [Compound 8a]	64.1 µM	0.83 nM	1.55 nM	IC50 increase compared to Compound 1 (Plasmepsin V (PmV) [3]): ~ 4 fold
CC(C)C[C@H](NC(=O)[C@@H](N)Cc1c[nH]c2ccccc12)C(=O)N[C@@H](CC(C)C)[C@@H](O)CN[C@@H](C)C(=O)N[C@@H](CCC(=O)O)C(=O)N[C@@H](C)C(N)=O [Compound 15a]	~ 100.5 μM	1380 nM	2570 nM	–
CC(C)C[C@H](NC(=O)[C@@H](N)CCC(N)=O)C(=O)N[C@@H](CC(C)C)[C@@H](O)CN[C@@H](C)C(=O)N[C@@H](CCC(=O)O)C(=O)N[C@@H](C)C(=O)O [Compound 17a]	> 200 µM	2360 nM	4390 nM	–
CC(C)C[C@H](NC(=O)[C@H](CCCNC(=N)N)NC(=O)CCCNC(=O)CCCNC(=O)CCCC[C@@H]1SC[C@@H]2NC(=O)N[C@@H]21)C(=O)N[C@@H](CC(C)C)C(O)CN[C@@H](C)C(=O)N[C@@H](CCC(N)=O)C(=O)N[C@@H](C)C(=O)O (stereo partly drawn) [Compound 36]	–	–	–	interaction with PmV in pull-down / immuno-precipitation (PmV-GFP; DC6 lysate, 50 μM or streptavidin-resin bound): confirmed the interaction between our inhibitor and PmV
CCCCCCCC(=O)N[C@@H](CCCNC(=N)N)C(=O)N[C@@H](CC(C)C)C(=O)N[C@@H](CC(C)C)[C@@H](O)CN[C@@H](Cc1ccc(O)cc1)C(=O)N[C@@H](CCC(=O)O)C(=O)N[C@@H](C)C(N)=O [Compound 37a]	> 200 µM	0.01 nM	0.023 nM	fold more active than parent compound 7a (Plasmepsin V (PmV) [3]): more than 50 fold; IC50 (Plasmepsin V (PmV) [3]; 3 μM substrate, read-out: IC50): ~0.023 nM
O=c1oc2c(O)c(O)cc3c(=O)oc4c(O)c(O)cc1c4c23 [Ellagic acid, reference compound]	2.4 µM	–	–	–
CC[C@H](C(=O)N1CCCC[C@H]1C(=O)O[C@H](CCc1ccc(OC)c(OC)c1)c1cccc(OCCN2CCOCC2)c1)c1cc(OC)c(OC)c(OC)c1 [Shield-1]	–	–	–	doubling time (T) (clone DC6): 34.83 h; growth constant (k) (clone DC6): 0.0199; growth rate (r) (clone DC6): 2.01; doubling time (T) (clone G6 (PmV-GFP-DD)): 34.15 h; growth constant (k) (clone G6 (PmV-GFP-DD)): 0.0203; growth rate (r) (clone G6 (PmV-GFP-DD)): 2.05
DABCYL-LNKRLLHETQ-EDANS ({DABCYL}-LNKRLLHETQ-{EDANS}; SMILES CC(C)C[C@H](NC(=O)c1ccc(/N=N/c2ccc(N(C)C)cc2)cc1)C(=O)N[C@@H](CC(N)=O)C(=O)N[C@@H](CCCCN)C(=O)N[C@@H](CCCNC(=N)N)C(=O)N[C@@H](CC(C)C)C(=O)N[C@@H](CC(C)C)C(=O)N[C@@H](Cc1c[nH]cn1)C(=O)N[C@@H](CCC(=O)O)C(=O)N[C@H](C(=O)N[C@@H](CCC(N)=O)C(=O)NCCNc1cccc2c(S(=O)(=O)O)cccc12)[C@@H](C)O) [HRPII-derived fluorogenic substrate of PmV]	–	–	–	Km (Plasmepsin V (PmV) [4]): 3.48 µM; K M (Plasmepsin V (PmV) [4]; substrate 0.19 to 6 μM): 3.48 (±0.7) 10^−6 M
